System: 9L cells
Test: Cellular ROS levels after ionizing irradiation (DCFD, flow cytometry), 9L
Type: cell-based, rat
Details: for relative MFI of DCF fluorescence 12 hours after ionizing irradiation, timing study: 10 Gy
Protocol: Intracellular ROS production was evaluated using the oxidant-sensitive fluorescence probe DCFD and flow cytometry (Yamamori T, Yasui H, Yamazumi M, et al: Ionizing radiation induces mitochondrial reactive oxygen species production accompanied by upregulation of mitochondrial electron transport chain function and mitochondrial content under control of the cell cycle checkpoint. Free Radic Biol Med 53: 260-270, 2012.). The cells were seeded on a 100-mm culture dish, and using an X-ray irradiation apparatus (MBR-1520R; Hitachi, Tokyo, Japan) (0.67 Gy/min), the cells were then irradiated with a radiation of 10 Gy in a dark room. During the ionizing irradiation, the culture dish was maintained at a room temperature in a dark container. In the case of a 5-ALA and ionizing irradiation group (RT,12 h+ALA), the cells were treated with 1 mM 5-ALA for 4 hours, then, immediately after the treatment, the cells were irradiated with ionizing radiation, and were then incubated together with 10 μM DCFD at 37° C. for 15 minutes, followed by washing with PBS twice. Thereafter, as described above, the cells were analyzed using a flow cytometer (excitation: 488 nm; radiation: 525/50 nm band-pass filter). Control cells were not exposed to ionizing radiation or 5-ALA. In a 5-ALA group, the cells were treated with 1 mM 5-ALA for 4 hours, but were not exposed to ionizing radiation. The control cells and the cells of the 5-ALA group were treated with DCFD in the same manner as described above. In order to prevent the photoactivation of 5-ALA-induced PpIX and DCFD, all procedures were carried out in a dark room. The flow cytometric data were analyzed using FlowJo (Tree Star Inc., Ashland, Oreg., USA). The MFI of the DCF fluorescence in the cells, with respect to that in control cells, was calculated for each cell line.
The cells were seeded on a 100-mm culture dish, and were then exposed to an ionizing radiation of 10 Gy. The incubation time (4 h) of 1 mM 5-ALA was the same among individual groups, and three types of 5-ALA treatment times were initiated: i) 5-ALA treatment immediately before ionizing irradiation [RT+ALA (pre) group]; ii) 5-ALA treatment immediately after ionizing irradiation [RT+ALA (4 h) group]; and iii) 5-ALA treatment 8 hours after ionizing irradiation [RT+ALA (12 h) group]. In each group, twelve hours after the ionizing irradiation, the cells were incubated together with 10 μM DCFD at 37° C. for 15 minutes, and were then washed with PBS twice. Immediately after the washing, as described above, DCF fluorescence was analyzed using a flow cytometer. Control cells were not treated with ionizing radiation or 5-ALA. In a group involving only ionizing irradiation (RT), the cells were exposed to ionizing radiation, without performing 5-ALA treatments, and were then treated with DCFD twelve hours after the exposure to the ionizing radiation in the same manner as described above. All procedures were carried out in a dark room. The flow cytometric data were analyzed using FlowJo software. The MFI of the DCF fluorescence in the cells, with respect to that in control cells, was calculated for each cell line.

In the case of NCC(=O)CCC(=O)O [ALA, 5-aminolevulinic acid], the “relative MFI of DCF fluorescence (cellular ROS)” value (1 mM 5-ALA 4 hours, without ionizing irradiation, relative to control cells, average±SE) is reported as 1.19±0.07, the “relative MFI of DCF fluorescence 12 hours after ionizing irradiation, timing study” value (from here on “relative MFI … timing study”) (5-ALA treatment 8 hours after ionizing irradiation, RT+ALA (12 h) group) is reported as 1.58±0.11 and the “relative MFI … timing study” value (5-ALA treatment immediately after ionizing irradiation, RT+ALA (4 h) group) is reported as 1.57±0.05. For the same molecule, the “relative MFI … timing study” value (5-ALA treatment immediately before ionizing irradiation, RT+ALA (pre) group) was 1.93±0.10 and the “relative MFI of DCF fluorescence (cellular ROS)” value (12 hours after 10 Gy ionizing irradiation with 5-ALA pre-treatment (1 mM, 4 hours), p=0.009 vs RT 12 h) was 1.91±0.19.

Reference: patent US20170056351A1, “COMPOSITION FOR INDUCING TUMOR IMMUNITY” (UNIVERSITY OF OCCUPATIONAL AND ENVIRONMENTAL HEALTH, JAPAN, priority 2014, published 2017)
